Experimental data: US11236129B2, “IL-17A binding peptides and medical uses thereof” (Dompe' Farmaceutici S.P.A., priority 2018, dated 2022)
Residues, ends and D or L forms follow the SMILES beside them.

Target: IL-17RA/IL17RC dimerization induced by IL-17A (Homo sapiens, UniProt Q16552)
Assay: IL-17RA/IL17RC dimerization assay in response to IL-17A (PathHunter Cytokine Receptor Assay)
Format: cell-based
Details: IL-17A at EC80; read-out: IC50 in IL-17RA/IL7RC dimerization assay
Procedure, shortened: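 Receptor dimerization was read as chemiluminescence from complemented β-galactosidase after IL-17A at EC80 concentration for 6–16 h at 37 °C. Peptides were added 60 min before agonist, at 37 °C or room temperature, with 1% vehicle. Percent inhibition used the EC80-stimulated and vehicle wells as references.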

IL-17RA/IL17RC dimerization induced by IL-17A, sequence (Q16552 24-155): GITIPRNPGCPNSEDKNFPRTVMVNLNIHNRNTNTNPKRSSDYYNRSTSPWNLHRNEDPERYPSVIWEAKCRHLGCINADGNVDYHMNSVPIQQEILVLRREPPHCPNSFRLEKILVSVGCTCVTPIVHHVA

| Structure (SMILES) | IC50 |
| --- | --- |
| CC[C@H](C)[C@H](NC(=O)[C@H](Cc1c[nH]c2ccccc12)NC(=O)[C@H](CC(=O)O)NC(=O)[C@H](Cc1c[nH]c2ccccc12)NC(=O)[C@H](CC(C)C)NC(=O)[C@H](CC(=O)O)NC(=O)[C@H](C)NC(=O)[C@@H]1CCCN1C(=O)[C@@H](NC(=O)[C@H](Cc1ccc(O)cc1)NC(=O)CNC(=O)[C@H](CCCNC(=N)N)NC(=O)[C@@H](NC(C)=O)C(C)C)C(C)C)C(=O)N[C@@H](CC(N)=O)C(=O)N[C@@H](CCCCN)C(N)=O [SEQ ID NO: 242] (Ac-VRGYVPADLWDWINK-NH2) | < 10 µM |
| CC[C@H](C)[C@H](NC(=O)[C@H](Cc1c[nH]c2ccccc12)NC(=O)[C@H](CC(=O)O)NC(=O)[C@H](Cc1c[nH]c2ccccc12)NC(=O)[C@H](CC(C)C)NC(=O)[C@H](CC(=O)O)NC(=O)[C@H](C)NC(=O)[C@@H]1CCCN1C(=O)[C@@H](NC(=O)[C@H](Cc1ccc(O)cc1)NC(=O)[C@H](C)NC(=O)[C@H](CCCNC(=N)N)NC(=O)[C@@H](NC(C)=O)C(C)C)C(C)C)C(=O)N[C@@H](CC(N)=O)C(=O)N[C@@H](CCCCN)C(N)=O [SEQ ID NO: 243] (Ac-VRAYVPADLWDWINK-NH2) | < 10 µM |
| CC[C@H](C)[C@H](NC(=O)[C@H](Cc1c[nH]c2ccccc12)NC(=O)[C@H](CC(=O)O)NC(=O)[C@H](Cc1c[nH]c2ccccc12)NC(=O)[C@H](CC(C)C)NC(=O)[C@H](CC(=O)O)NC(=O)[C@H](C)NC(=O)[C@@H]1CCCN1C(=O)[C@@H](NC(=O)[C@H](Cc1ccc(O)cc1)NC(=O)[C@H](CC(C)C)NC(=O)[C@H](CCCNC(=N)N)NC(=O)[C@@H](NC(C)=O)C(C)C)C(C)C)C(=O)N[C@@H](CC(N)=O)C(=O)N[C@@H](CCCCN)C(N)=O [SEQ ID NO: 244] (Ac-VRLYVPADLWDWINK-NH2) | < 10 µM |
| CC[C@H](C)[C@H](NC(=O)[C@H](Cc1c[nH]c2ccccc12)NC(=O)[C@H](CC(=O)O)NC(=O)[C@H](Cc1c[nH]c2ccccc12)NC(=O)[C@H](CC(C)C)NC(=O)[C@H](CC(=O)O)NC(=O)[C@H](C)NC(=O)[C@@H]1CCCN1C(=O)[C@H](CC(C)C)NC(=O)[C@H](Cc1ccc(O)cc1)NC(=O)[C@@H](NC(=O)[C@H](CCCNC(=N)N)NC(=O)[C@@H](NC(C)=O)C(C)C)[C@@H](C)CC)C(=O)N[C@@H](CC(N)=O)C(=O)N[C@@H](CCCCN)C(N)=O [SEQ ID NO: 245] (Ac-VRIYLPADLWDWINK-NH2) | < 10 µM |
| CC[C@H](C)[C@H](NC(C)=O)C(=O)N[C@@H](Cc1c[nH]cn1)C(=O)N[C@H](C(=O)N[C@H](C(=O)N[C@H](C(=O)N1CCC[C@H]1C(=O)N[C@@H](CC(C)C)C(=O)N[C@@H](CCC(=O)O)C(=O)N[C@H](C(=O)N[C@@H](Cc1ccccc1)C(=O)N[C@@H](CCC(=O)O)C(=O)N[C@@H](Cc1c[nH]c2ccccc12)C(=O)N[C@@H](CC(C)C)C(=O)N[C@@H](CCC(N)=O)C(=O)N[C@@H](Cc1c[nH]cn1)C(N)=O)[C@@H](C)CC)[C@@H](C)CC)[C@@H](C)O)C(C)C [SEQ ID NO: 246] (Ac-IHVTIPLEIFEWLQH-NH2) | < 10 µM |
| CC[C@H](C)[C@H](NC(C)=O)C(=O)N[C@@H](Cc1c[nH]cn1)C(=O)N[C@H](C(=O)N[C@H](C(=O)N[C@H](C(=O)N1CCC[C@H]1C(=O)N[C@@H](CC(C)C)C(=O)N[C@@H](CCC(=O)O)C(=O)N[C@H](C(=O)N[C@@H](Cc1ccccc1)C(=O)N[C@@H](CCC(=O)O)C(=O)N[C@@H](Cc1c[nH]c2ccccc12)C(=O)N[C@@H](C)C(=O)N[C@@H](CCC(N)=O)C(=O)N[C@@H](Cc1c[nH]cn1)C(N)=O)[C@@H](C)CC)[C@@H](C)CC)[C@@H](C)O)C(C)C [SEQ ID NO: 247] (Ac-IHVTIPLEIFEWAQH-NH2) | < 10 µM |
| CC[C@H](C)[C@H](NC(C)=O)C(=O)N[C@@H](Cc1c[nH]cn1)C(=O)N[C@H](C(=O)N[C@H](C(=O)N[C@H](C(=O)N1CCC[C@H]1C(=O)N[C@@H](CC(C)C)C(=O)N[C@@H](CCC(=O)O)C(=O)N[C@H](C(=O)N[C@@H](Cc1ccccc1)C(=O)N[C@@H](CCC(=O)O)C(=O)N[C@@H](Cc1c[nH]c2ccccc12)C(=O)N[C@@H](CC(C)C)C(=O)N[C@@H](CCC(N)=O)C(=O)N[C@@H](CCCNC(=N)N)C(N)=O)[C@@H](C)CC)[C@@H](C)CC)[C@@H](C)O)C(C)C [SEQ ID NO: 248] (Ac-IHVTIPLEIFEWLQR-NH2) | < 10 µM |
| CC[C@H](C)[C@H](NC(C)=O)C(=O)N[C@@H](Cc1c[nH]cn1)C(=O)N[C@H](C(=O)N[C@H](C(=O)N[C@H](C(=O)N1CCC[C@H]1C(=O)N[C@@H](CC(C)C)C(=O)N[C@@H](CCC(=O)O)C(=O)N[C@H](C(=O)N[C@@H](Cc1ccccc1)C(=O)N[C@@H](CCC(=O)O)C(=O)N[C@@H](Cc1c[nH]c2ccccc12)C(=O)N[C@@H](CC(C)C)C(=O)N[C@@H](CCC(N)=O)C(=O)N[C@@H](Cc1c[nH]cn1)C(N)=O)C(C)C)[C@@H](C)CC)[C@@H](C)O)C(C)C [SEQ ID NO: 249] (Ac-IHVTIPLEVFEWLQH-NH2) | < 10 µM |
| CC[C@H](C)[C@H](NC(C)=O)C(=O)N[C@@H](Cc1c[nH]cn1)C(=O)N[C@H](C(=O)N[C@H](C(=O)N[C@H](C(=O)N1CCC[C@H]1C(=O)NCC(=O)N[C@@H](CCC(=O)O)C(=O)N[C@H](C(=O)N[C@@H](Cc1ccccc1)C(=O)N[C@@H](CCC(=O)O)C(=O)N[C@@H](Cc1c[nH]c2ccccc12)C(=O)N[C@@H](CC(C)C)C(=O)N[C@@H](CCC(N)=O)C(=O)N[C@@H](Cc1c[nH]cn1)C(N)=O)[C@@H](C)CC)[C@@H](C)CC)[C@@H](C)O)C(C)C [SEQ ID NO: 250] (Ac-IHVTIPGEIFEWLQH-NH2) | < 10 µM |
| CC[C@H](C)[C@H](NC(=O)[C@H](CCC(=O)O)NC(=O)[C@H](CCC(N)=O)NC(=O)[C@@H]1CCCN1C(=O)[C@@H](NC(=O)[C@H](CO)NC(=O)[C@H](Cc1ccccc1)NC(=O)[C@H](CCCNC(=N)N)NC(=O)[C@@H](NC(C)=O)C(C)C)C(C)C)C(=O)N[C@@H](Cc1ccc(O)cc1)C(=O)N[C@@H](CCC(=O)O)C(=O)N[C@@H](Cc1c[nH]c2ccccc12)C(=O)N[C@H](C(=O)N[C@@H](CCCNC(=N)N)C(=O)N[C@@H](CCCNC(=N)N)C(N)=O)C(C)C [SEQ ID NO: 251] (Ac-VRFSVPQEIYEWVRR-NH2) | < 10 µM |
| CC[C@H](C)[C@H](NC(=O)[C@H](CCC(=O)O)NC(=O)[C@H](CC(C)C)NC(=O)[C@@H]1CCCN1C(=O)[C@@H](NC(=O)[C@H](CO)NC(=O)[C@@H](NC(=O)[C@H](CCCNC(=N)N)NC(=O)[C@H](CC(C)C)NC(C)=O)[C@@H](C)CC)C(C)C)C(=O)N[C@@H](Cc1ccccc1)C(=O)N[C@@H](CCC(=O)O)C(=O)N[C@@H](Cc1c[nH]c2ccccc12)C(=O)N[C@@H](CC(C)C)C(=O)N[C@@H](CCC(N)=O)C(=O)N[C@@H](Cc1c[nH]cn1)C(N)=O [SEQ ID NO: 252] (Ac-LRISVPLEIFEWLQH-NH2) | < 10 µM |
| CC[C@H](C)[C@H](NC(=O)[C@H](CCC(=O)O)NC(=O)[C@H](CC(C)C)NC(=O)[C@@H]1CCCN1C(=O)[C@@H](NC(=O)[C@H](CO)NC(=O)CNC(=O)[C@H](CCCNC(=N)N)NC(=O)[C@H](CC(C)C)NC(C)=O)C(C)C)C(=O)N[C@@H](Cc1ccccc1)C(=O)N[C@@H](CCC(=O)O)C(=O)N[C@@H](Cc1c[nH]c2ccccc12)C(=O)N[C@@H](CC(C)C)C(=O)N[C@@H](CCC(N)=O)C(=O)N[C@@H](Cc1c[nH]cn1)C(N)=O [SEQ ID NO: 253] (Ac-LRGSVPLEIFEWLQH-NH2) | < 10 µM |
| CC[C@H](C)[C@H](NC(=O)[C@H](CCC(=O)O)NC(=O)[C@H](CC(C)C)NC(=O)[C@@H]1CCCN1C(=O)[C@@H](NC(=O)[C@H](CO)NC(=O)[C@@H](NC(=O)[C@H](CCCCN)NC(=O)[C@@H](NC(C)=O)C(C)C)[C@@H](C)CC)C(C)C)C(=O)N[C@@H](Cc1ccccc1)C(=O)N[C@@H](CCC(=O)O)C(=O)N[C@@H](Cc1c[nH]c2ccccc12)C(=O)N[C@@H](CC(C)C)C(=O)N[C@@H](CCC(N)=O)C(=O)N[C@@H](Cc1c[nH]cn1)C(N)=O [SEQ ID NO: 254] (Ac-VKISVPLEIFEWLQH-NH2) | < 10 µM |
| CC(=O)N[C@H](C(=O)N[C@@H](CCC(=O)O)C(=O)N[C@@H](Cc1ccccc1)C(=O)N[C@@H](CC(N)=O)C(=O)N[C@@H](Cc1ccccc1)C(=O)N1CCC[C@H]1C(=O)N[C@@H](CCC(N)=O)C(=O)N[C@@H](CCC(N)=O)C(=O)N[C@H](C(=O)N[C@@H](Cc1ccc(O)cc1)C(=O)N[C@@H](CCC(=O)O)C(=O)N[C@@H](Cc1c[nH]c2ccccc12)C(=O)N[C@@H](Cc1ccccc1)C(=O)N[C@@H](CC(=O)O)C(=O)N[C@@H](CC(=O)O)C(N)=O)C(C)C)C(C)C [SEQ ID NO: 255] (Ac-VEFNFPQQVYEWFDD-NH2) | < 10 µM |
| CC(=O)N[C@H](C(=O)N[C@@H](CCC(=O)O)C(=O)N[C@@H](Cc1ccccc1)C(=O)N[C@@H](CC(N)=O)C(=O)N[C@@H](Cc1ccccc1)C(=O)N1CCC[C@H]1C(=O)N[C@@H](CCC(N)=O)C(=O)N[C@@H](CCC(N)=O)C(=O)N[C@H](C(=O)N[C@@H](Cc1ccc(O)cc1)C(=O)N[C@@H](CCC(=O)O)C(=O)N[C@@H](Cc1c[nH]c2ccccc12)C(=O)N[C@H](C(=O)N[C@@H](CCCNC(=N)N)C(=O)N[C@@H](CCCNC(=N)N)C(N)=O)C(C)C)C(C)C)C(C)C [SEQ ID NO: 256] (Ac-VEFNFPQQVYEWVRR-NH2) | < 10 µM |
| CC(=O)N[C@H](C(=O)N[C@H](C(=O)N[C@H](C(=O)N[C@@H](Cc1ccc(O)cc1)C(=O)N[C@H](C(=O)N[C@@H](Cc1ccccc1)C(=O)N[C@@H](CC(N)=O)C(=O)N[C@@H](CCC(=O)O)C(=O)N[C@@H](CCC(N)=O)C(=O)N[C@@H](Cc1c[nH]cn1)C(=O)N[C@@H](CCC(N)=O)C(=O)N[C@@H](CCC(=O)O)C(=O)N[C@@H](Cc1ccc(O)cc1)C(=O)N[C@H](C(=O)N[C@@H](CCCNC(=N)N)C(=O)N[C@@H](CCCCN)C(N)=O)C(C)C)C(C)C)C(C)C)C(C)C)[C@@H](C)O [SEQ ID NO: 257] (Ac-TVVYVFNEQHQEYVRK-NH2) | < 10 µM |
